Read-outs that look alike come from different tables or passages of the source.
Key:
human O-GlcNAcase = human O-GlcNAcase (Homo sapiens (Human), UniProt O60502); assay: biochemical; format: biochemical; conditions: for Ki: read-out: OGA KI
[1] = Assay for determination of apparent permeability (Papp), bi-directional transport; conditions: pig, LLC-PK1
[2] = purified human O-GlcNAcase 0.7 nM, pH 7.0, room temperature, Cheng-Prusoff

human O-GlcNAcase, sequence (O60502 whole entry): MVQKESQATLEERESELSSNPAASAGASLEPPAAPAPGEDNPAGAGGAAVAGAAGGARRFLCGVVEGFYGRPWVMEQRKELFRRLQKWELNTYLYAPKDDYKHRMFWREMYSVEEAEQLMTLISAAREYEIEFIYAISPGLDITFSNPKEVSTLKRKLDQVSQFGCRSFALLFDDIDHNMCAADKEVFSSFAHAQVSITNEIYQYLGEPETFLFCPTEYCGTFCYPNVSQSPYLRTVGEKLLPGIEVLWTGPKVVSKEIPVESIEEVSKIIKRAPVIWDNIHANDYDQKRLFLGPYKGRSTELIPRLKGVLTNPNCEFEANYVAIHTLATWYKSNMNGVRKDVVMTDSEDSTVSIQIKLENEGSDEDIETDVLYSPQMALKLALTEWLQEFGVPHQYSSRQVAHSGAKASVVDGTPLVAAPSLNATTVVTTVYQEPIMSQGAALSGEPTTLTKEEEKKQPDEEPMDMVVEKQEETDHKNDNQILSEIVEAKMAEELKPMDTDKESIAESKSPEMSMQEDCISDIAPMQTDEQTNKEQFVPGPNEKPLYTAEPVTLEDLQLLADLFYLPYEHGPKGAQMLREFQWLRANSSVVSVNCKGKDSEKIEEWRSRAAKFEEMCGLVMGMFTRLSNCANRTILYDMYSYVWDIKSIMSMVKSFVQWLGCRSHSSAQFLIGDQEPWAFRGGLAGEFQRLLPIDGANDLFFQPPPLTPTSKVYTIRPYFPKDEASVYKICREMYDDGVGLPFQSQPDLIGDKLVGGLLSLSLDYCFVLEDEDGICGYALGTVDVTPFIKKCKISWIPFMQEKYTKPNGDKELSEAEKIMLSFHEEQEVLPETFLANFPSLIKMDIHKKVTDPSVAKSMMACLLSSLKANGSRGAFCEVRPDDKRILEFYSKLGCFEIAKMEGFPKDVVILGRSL

CNC1=N[C@@H]2[C@H]3OC(C)(C)O[C@@H]3[C@@H](C(OCc3ccc(F)cc3)C(F)(F)F)O[C@@H]2S1 (stereo in doubt) [Example 117, (1R,2R,6R,8S,9S)—N,11,11-trimethyl-8-[(1S)-2,2,2-trifluoro-1-[(4-fluorophenyl)methoxy]ethyl]-7,10,12-trioxa-5-thia-3-azatricyclo[7.3.0.0[2,6]]dodec-3-en-4-amine]
KI values for inhibition of O-GlcNAcase (human O-GlcNAcase; units given within the value): does not possess inhibitory activity in the aforementioned range

CN(C)C1=N[C@@H]2[C@@H](O)[C@H](O)[C@@H]([C@@H](N(C)C)C(F)(F)F)O[C@@H]2S1 [Example 17, (3aR,5R,6S,7R,7aR)-2-(dimethylamino)-5-((R)-1-(dimethylamino)-2,2,2-trifluoroethyl)-5,6,7,7a-tetrahydro-3aH-pyrano[3,2-d]thiazole-6,7-diol]
Ki (human O-GlcNAcase; [2]): 41.9 nM | Papp at 3 h, 1 μM [1]: 31.2 ×10⁻⁶ cm/s

CN(C)C1=N[C@@H]2[C@@H](O)[C@H](O)[C@@H]([C@@H](OCc3ccc(-c4ccccc4)cc3)C(F)(F)F)O[C@@H]2S1 [Example 44, (3aR,5S,6S,7R,7aR)-5-((R)-1-(biphenyl-4-ylmethoxy)-2,2,2-trifluoroethyl)-2-(dimethylamino)-5,6,7,7a-tetrahydro-3aH-pyrano[3,2-d]thiazole-6,7-diol]
Ki (human O-GlcNAcase): 3.05 nM

CN(C)C1=N[C@@H]2[C@@H](O)[C@H](O)[C@@H]([C@H](OCc3cccc(F)c3)C(F)(F)F)O[C@@H]2S1 [Example 63, (3aR,5S,6S,7R,7aR)-2-(dimethylamino)-5-((S)-2,2,2-trifluoro-1-(3-fluorobenzyloxy)ethyl)-5,6,7,7a-tetrahydro-3aH-pyrano[3,2-d]thiazole-6,7-diol]
Papp at 3 h, 1 μM [1]: 31.2 ×10⁻⁶ cm/s

CN(C)C1=N[C@@H]2[C@@H](O)[C@H](O)[C@@H]([C@@H](OCc3cccc(C(F)(F)F)c3)C(F)(F)F)O[C@@H]2S1 [Example 67, (3aR,5S,6S,7R,7aR)-2-(dimethylamino)-5-((R)-2,2,2-trifluoro-1-(3-(trifluoromethyl)benzyloxy)ethyl)-5,6,7,7a-tetrahydro-3aH-pyrano[3,2-d]thiazole-6,7-diol]
Papp at 3 h, 1 μM [1]: 29.5 ×10⁻⁶ cm/s

CN(C)C1=N[C@@H]2[C@@H](O)[C@H](O)[C@@H]([C@@H](OCc3ccccc3C(F)(F)F)C(F)(F)F)O[C@@H]2S1 [Example 68, (3aR,5S,6S,7R,7aR)-2-(dimethylamino)-5-((R)-2,2,2-trifluoro-1-(2-(trifluoromethyl)benzyloxy)ethyl)-5,6,7,7a-tetrahydro-3aH-pyrano[3,2-d]thiazole-6,7-diol]
Papp at 3 h, 1 μM [1]: 34.1 ×10⁻⁶ cm/s

CN(C)C1=N[C@@H]2[C@@H](O)[C@H](O)[C@@H]([C@@H](OCc3ccc(CF)cc3)C(F)(F)F)O[C@@H]2S1 [Example 69, (3aR,5S,6S,7R,7aR)-2-(dimethylamino)-5-((R)-2,2,2-trifluoro-1-(4-(fluoromethyl)benzyloxy)ethyl)-5,6,7,7a-tetrahydro-3aH-pyrano[3,2-d]thiazole-6,7-diol]
Papp at 3 h, 1 μM [1]: 31.1 ×10⁻⁶ cm/s

CCN(C)C1=N[C@@H]2[C@@H](O)[C@H](O)[C@@H]([C@H](OC)C(F)(F)F)O[C@@H]2S1 [Example 72, (3aR,5S,6S,7R,7aR)-2-(ethyl(methyl)amino)-5-((S)-2,2,2-trifluoro-1-methoxyethyl)-5,6,7,7a-tetrahydro-3aH-pyrano[3,2-d]thiazole-6,7-diol]
Papp at 3 h, 1 μM [1]: 25.4 ×10⁻⁶ cm/s

CCN(C)C1=N[C@@H]2[C@@H](O)[C@H](O)[C@@H]([C@@H](OC)C(F)(F)F)O[C@@H]2S1 [Example 73, (3aR,5S,6S,7R,7aR)-2-(ethyl(methyl)amino)-5-((R)-2,2,2-trifluoro-1-methoxyethyl)-5,6,7,7a-tetrahydro-3aH-pyrano[3,2-d]thiazole-6,7-diol]
Papp at 3 h, 1 μM [1]: 19.9 ×10⁻⁶ cm/s

CN(C)C1=N[C@@H]2[C@@H](O)[C@H](O)[C@@H]([C@@](CCc3ccccc3)(OCc3ccccc3)C(F)(F)F)O[C@@H]2S1 [Example 76, (3aR,5S,6S,7R,7aR)-5-((R)-2-(benzyloxy)-1,1,1-trifluoro-4-phenylbutan-2-yl)-2-(dimethylamino)-5,6,7,7a-tetrahydro-3aH-pyrano[3,2-d]thiazole-6,7-diol]
Ki (human O-GlcNAcase; [2]): 726 nM

CNC1=N[C@@H]2[C@@H](O)[C@H](O)[C@@H]([C@@H](OCCC3CCCCC3)C(F)(F)F)O[C@@H]2S1 [Example 80, (3aR,5S,6S,7R,7aR)-5-((R)-1-(2-cyclohexylethoxy)-2,2,2-trifluoroethyl)-2-(methylamino)-5,6,7,7a-tetrahydro-3aH-pyrano[3,2-d]thiazole-6,7-diol]
Papp at 3 h, 1 μM [1]: 28.5 ×10⁻⁶ cm/s

CNC1=N[C@@H]2[C@@H](O)[C@H](O)[C@@H]([C@@H](OCCCc3ccc(F)cc3)C(F)(F)F)O[C@@H]2S1 [Example 83, (3aR,5S,6S,7R,7aR)-2-(methylamino)-5-((R)-2,2,2-trifluoro-1-(3-(4-fluorophenyl)propoxy)ethyl)-5,6,7,7a-tetrahydro-3aH-pyrano[3,2-d]thiazole-6,7-diol]
Papp at 3 h, 1 μM [1]: 29.7 ×10⁻⁶ cm/s

CNC1=N[C@@H]2[C@@H](O)[C@H](O)[C@@H]([C@@H](OCc3ccccc3)C(F)(F)F)O[C@@H]2S1 [Example 84, (3aR,5S,6S,7R,7aR)-5-((R)-1-(benzyloxy)-2,2,2-trifluoroethyl)-2-(methylamino)-5,6,7,7a-tetrahydro-3aH-pyrano[3,2-d]thiazole-6,7-diol]
Papp at 3 h, 1 μM [1]: 27 ×10⁻⁶ cm/s

CNC1=N[C@@H]2[C@@H](O)[C@H](O)[C@@H]([C@@H](OCc3ccc(C)cc3)C(F)(F)F)O[C@@H]2S1 [Example 85, (3aR,5S,6S,7R,7aR)-2-(methylamino)-5-((R)-2,2,2-trifluoro-1-(4-mcthylbenzyloxy)ethyl)-5,6,7,7a-tetrahydro-3aH-pyrano[3,2-d]thiazole-6,7-diol]
Ki (human O-GlcNAcase; [2]): 3.11 nM | Papp at 3 h, 1 μM [1]: 26.3 ×10⁻⁶ cm/s

CCc1ccc(CO[C@H]([C@H]2O[C@@H]3SC(NC)=N[C@@H]3[C@@H](O)[C@@H]2O)C(F)(F)F)cc1 [Example 86, (3aR,5S,6S,7R,7aR)-5-((R)-1-(4-ethylbenzyloxy)-2,2,2-trifluoroethyl)-2-(methylamino)-5,6,7,7a-tetrahydro-3aH-pyrano[3,2-d]thiazole-6,7-diol]
Papp at 3 h, 1 μM [1]: 29.9 ×10⁻⁶ cm/s

CNC1=N[C@@H]2[C@@H](O)[C@H](O)[C@@H]([C@@H](OCc3ccccc3C(F)(F)F)C(F)(F)F)O[C@@H]2S1 [Example 93, (3aR,5S,6S,7R,7aR)-2-(methylamino)-5-((R)-2,2,2-trifluoro-1-(2-(trifluoromethyl)benzyloxy)ethyl)-5,6,7,7a-tetrahydro-3aH-pyrano[3,2-d]thiazole-6,7-diol]
Papp at 3 h, 1 μM [1]: 29.2 ×10⁻⁶ cm/s

CNC1=N[C@@H]2[C@@H](O)[C@H](O)[C@@H]([C@@H](OCc3ccc(C(F)(F)F)cc3)C(F)(F)F)O[C@@H]2S1 [Example 94, (3aR,5S,6S,7R,7aR)-2-(mcthylamino)-5-((R)-2,2,2-trifluoro-1-(4-(trifluoromethyl)benzyloxy)ethyl)-5,6,7,7a-tetrahydro-3aH-pyrano[3,2-d]thiazole-6,7-diol]
Papp at 3 h, 1 μM [1]: 24.6 ×10⁻⁶ cm/s

CCNC1=N[C@@H]2[C@@H](O)[C@H](O)[C@@H]([C@@H](OCc3ccc(OC)cc3)C(F)(F)F)O[C@@H]2S1 [Example 96, (3aR,5S,6S,7R,7aR)-2-(ethylamino)-5-((R)-2,2,2-trifluoro-1-(4-methoxybenzyloxy)ethyl)-5,6,7,7a-tetrahydro-3aH-pyrano[3,2-d]thiazole-6,7-diol]
Ki (human O-GlcNAcase; [2]): 12.5 nM | Papp at 3 h, 1 μM [1]: 30.1 ×10⁻⁶ cm/s

CNC1=N[C@@H]2[C@@H](O)[C@H](O)[C@@H]([C@@H](OCc3ccc(OC)cc3)C(F)(F)F)O[C@@H]2S1 [Example 97, 2-(methylamino)-5-(2,2,2-trifluoro-1-(4-methoxybenzyloxy)ethyl)-5,6,7,7a-tetrahydro-3aH-pyrano[3,2-d]thiazole-6,7-diol]
Papp at 3 h, 1 μM [1]: 24.7 ×10⁻⁶ cm/s

CNC1=N[C@@H]2[C@@H](O)[C@H](O)[C@@H]([C@@H](OCc3ccc(OC)c(C(F)(F)F)c3)C(F)(F)F)O[C@@H]2S1 [Example 98, (3aR,5S,6S,7R,7aR)-2-(methylamino)-5-((R)-2,2,2-trifluoro-1-(4-methoxy-3-(trifluoromethyl)benzyloxy)ethyl)-5,6,7,7a-tetrahydro-3aH-pyrano[3,2-d]thiazole-6,7-diol]
Papp at 3 h, 1 μM [1]: 29.1 ×10⁻⁶ cm/s

CNC1=N[C@@H]2[C@@H](O)[C@H](O)[C@@H]([C@@H](OCc3ccc(Oc4ccccc4)cc3)C(F)(F)F)O[C@@H]2S1 [Example 99, (3aR,5S,6S,7R,7aR)-2-(methylamino)-5-((R)-2,2,2-trifluoro-1-(4-phenoxybenzyloxy)ethyl)-5,6,7,7a-tetrahydro-3aH-pyrano[3,2-d]thiazole-6,7-diol]
Papp at 3 h, 1 μM [1]: 21.7 ×10⁻⁶ cm/s

CCc1cc(CO[C@H]([C@H]2O[C@@H]3SC(NC)=N[C@@H]3[C@@H](O)[C@@H]2O)C(F)(F)F)ccc1OC [Example 100, (3aR,5S,6S,7R,7aR)-5-((R)-1-(3-ethyl-4-methoxybenzyloxy)-2,2,2-trifluoroethyl)-2-(methylamino)-5,6,7,7a-tetrahydro-3aH-pyrano[3,2-d]thiazole-6,7-diol]
Papp at 3 h, 1 μM [1]: 28.1 ×10⁻⁶ cm/s

CNC1=N[C@@H]2[C@@H](O)[C@H](O)[C@@H]([C@@H](OCc3cc(C)c(OC)c(C)c3)C(F)(F)F)O[C@@H]2S1 [Example 101, (3aR,5S,6S,7R,7aR)-2-(methylamino)-5-((R)-2,2,2-trifluoro-1-(4-methoxy-3,5-dimethylbenzyloxy)ethyl)-5,6,7,7a-tetrahydro-3aH-pyrano[3,2-d]thiazole-6,7-diol]
Papp at 3 h, 1 μM [1]: 28.9 ×10⁻⁶ cm/s

CN(C)C1=N[C@@H]2[C@@H](O)[C@H](O)[C@@H]([C@@H](Oc3ccccc3)C(F)(F)F)O[C@@H]2S1 [Example 107, (3aR,5S,6S,7R,7aR)-2-(dimethylamino)-5-((R)-2,2,2-trifluoro-1-phenoxyethyl)-5,6,7,7a-tetrahydro-3aH-pyrano[3,2-d]thiazole-6,7-diol]
Papp at 3 h, 1 μM [1]: 31.3 ×10⁻⁶ cm/s

COc1ccc(CO[C@@H](C)[C@H]2O[C@@H]3SC(N(C)C)=N[C@@H]3[C@@H](O)[C@@H]2O)cc1 [Example 109, (3aR,5S,6S,7R,7aR)-2-(dimethylamino)-5-((S)-1-(4-methoxybenzyloxy)ethyl)-5,6,7,7a-tetrahydro-3aH-pyrano[3,2-d]thiazole-6,7-diol]
Papp at 3 h, 1 μM [1]: 26.3 ×10⁻⁶ cm/s

Reference: patent US9611275B2 (priority 2012, dated 2017)
